Laboratory results as given in patent publication US7923440B2, “Method of treating or preventing immune mediated disorders and pharmaceutical formulation for use therein” (Pantarhei Bioscience B.V., priority 2002, dated 2011).
Where two headings read alike, the source gives them in different places.

Key:
[1] = system: ovariectomized adult rats; assay: Vaginal cornification bioassay in ovariectomized rats; type: in vivo, rat; details: for Number of Rats Exhibiting Estrogenic Response/Number of Rats Treated: sc, Day 7
From the text: Uterine weight increase in the rat is more commonly used as a measure of estrogenicity. […] In the early 1920s it was discovered that follicular fluid from the pig ovary contained a factor(s) that caused cornification/keratinization of the vaginal epithelium in the rat (Allen and Doisy, 1923, JAMA, 81, 819-821; Allen and Doisy, 1924, Am. J. Physiol., 69, 577-588). The so-called vaginal cornification response in rats subsequently provided a bioassay for testing estrogenicity. Vaginal epithelial cornification/keratinization in ovariectomized rats can be produced only by compounds considered to be true estrogens (Jones et al, 1973, Fert. Steril. 24, 284-291). […] Adult intact female CD rats were ovariectomized to induce estrogen deficiency. […] Castrate vaginal smears are indicative that complete ovariectomy was achieved. Treatment commenced following completion of the 7 days of smearing (day 0=first day of dosing). Animals were dosed, once daily for 7 consecutive days. Daily vaginal lavages continued to be obtained for 7 days after dosing was initiated in order to detect vaginal cornification, as an indication of an estrogenic response. A drop of vaginal washings was placed on a glass slide and examined by light microscopy to detect the presence or absence of cornified epithelial cells. Vaginal lavages were obtained prior to dosing on days 0-6 and prior to necropsy on day 7. The vaginal cornification bioassay was performed in order to determine the estrogenic profile of E4 when given subcutaneously (sc) to ovariectomized adult rats. E2 was used as a positive control. The vehicle (10% ethanol/sesame oil) served as the negative control. Steroids were dissolved in absolute ethanol and then brought to the final concentration with sesame oil (10% ethanol in sesame oil). […] The vaginal cornification bioassay was performed in order to determine the estrogenic profile of E4 when given orally (po) to ovariectomized adult rats. EE was used as a positive control. The vehicle (10% ethanol/sesame oil) served as the negative control. […]

[2] = Single rising oral dose study in healthy postmenopausal volunteers; type: in vivo, human
Description: To determine the bioavailability and elimination half-life of estetrol after oral dosing in humans a single rising dosing study was performed in healthy postmenopausal volunteers. Volunteers (n=6) were randomly assigned to 0.1, 1 or 10 mg estetrol and blood samples (18 per volunteer) were obtained over a period of 72 hours.
After thawing the plasma samples, liquid-liquid extraction (hexane and diethyl ether) was employed to prepare the estetrol-containing plasma samples for HPLC analysis (Perkin Elmer 200) and tandem mass spectrometry using a PE Sciex 4000 tandem mass spectrometer and APCI interface. With each sample batch, a calibration curve with 6 calibrators was recorded. The calibration curve was calculated using linear regression (correlation coefficient >0.98), which permitted quantitation of plasma concentrations.

human ERα = target: T1, human ERα (Homo sapiens, UniProt P03372); assay: Competitive steroid binding assay, ERα; details: relative preference for binding to ERα protein, from Ki values
T1 sequence (P03372 1-595): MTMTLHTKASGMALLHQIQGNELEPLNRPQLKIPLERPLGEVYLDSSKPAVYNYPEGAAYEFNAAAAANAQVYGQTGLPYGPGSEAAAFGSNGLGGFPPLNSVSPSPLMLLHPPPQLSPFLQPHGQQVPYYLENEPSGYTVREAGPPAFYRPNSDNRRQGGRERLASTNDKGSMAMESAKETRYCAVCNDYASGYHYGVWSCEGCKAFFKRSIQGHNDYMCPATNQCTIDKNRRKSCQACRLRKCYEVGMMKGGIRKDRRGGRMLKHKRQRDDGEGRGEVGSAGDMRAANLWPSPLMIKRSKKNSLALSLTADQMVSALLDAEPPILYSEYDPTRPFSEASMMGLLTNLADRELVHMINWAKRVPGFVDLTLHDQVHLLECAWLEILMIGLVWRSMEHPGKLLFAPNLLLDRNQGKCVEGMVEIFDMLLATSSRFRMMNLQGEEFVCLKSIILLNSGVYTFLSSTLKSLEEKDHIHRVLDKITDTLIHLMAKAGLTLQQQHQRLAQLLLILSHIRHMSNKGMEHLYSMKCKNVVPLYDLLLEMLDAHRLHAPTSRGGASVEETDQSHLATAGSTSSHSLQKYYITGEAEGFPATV

[3] = system: SJL/J mice with experimental autoimmune encephalomyelitis (EAE); assay: PLP139-151 induced EAE in SJL/J mice, oral treatment; type: in vivo; details: for EAE incidence / mean cumulative EAE score versus vehicle / mean cumulative EAE score: day 0-42; for mean cumulative EAE score: vehicle 17.4±5.0; for clinical EAE score in second phase (relapse): day 26 until day 42; for mean maximal clinical (disability) score: vehicle 1.8±0.3; for mean day of onset of EAE: vehicle day 12
nonpregnant ewes = details: intravenously administered, Levine et al. 1984; cited from earlier work
immature rat uterus = details: subcutaneously administered, cited from earlier work
uterus = details: continuous administration from a subcutaneous depot, Martucci et al. 1977; cited from earlier work
[4] = system: estrogen receptors in the human endometrium; details: cited from earlier work

SMILES: C[C@]12CC[C@@H]3c4ccc(O)cc4CC[C@H]3[C@@H]1[C@@H](O)[C@@H](O)[C@@H]2O [E4, 1,3,5 (10)-estratrien-3,15α,16α,17β-tetrol]
- onset of vaginal cornification, po versus sc ([1]; amount of animals responding at days 1-3, even at low doses (e.g. 0.1 mg/kg/day)): faster in po-treated than in sc-treated animals
- Number of Rats Exhibiting Estrogenic Response/Number of Rats Treated ([1]; 1.0 mg/kg/day, 1 mg/kg/day): all rats
- Number of Rats Exhibiting Estrogenic Response/Number of Rats Treated ([1]; 3.0 mg/kg/day, 3 mg/kg/day): all rats
- half-life ([2]; female, human, plasma, po, human postmenopausal subjects, read-out: elimination half-life): > 15 h
- tolerability ([2]; oral single dose 0.1, 1, 10 mg, postmenopausal volunteers): Good tolerability
- AUC dose-linearity ([2]; oral single dose 0.1 to 10 mg, postmenopausal volunteers): good dose-linearity
- Relative ERα/ERβ preference (human ERα): 400%
- disease onset of EAE versus vehicle ([3]; oral 0.1 mg/kg/day): trend of delayed disease onset as compared to vehicle-treated mice, but this was not statistically significant
- mean maximal clinical score versus vehicle ([3]; oral 0.1 mg/kg/day): did not show statistically significant differences
- EAE incidence ([3]; oral 0.1 mg/kg/day): 70%
- mean cumulative EAE score versus vehicle ([3]; oral 0.1 mg/kg/day): did not show statistically significant differences
- disease onset of EAE versus vehicle ([3]; oral 0.3 mg/kg/day): trend of delayed disease onset as compared to vehicle-treated mice, but this was not statistically significant
- mean maximal clinical score versus vehicle ([3]; oral 0.3 mg/kg/day): did not show statistically significant differences
- EAE incidence ([3]; oral 0.3 mg/kg/day): 80%
- mean cumulative EAE score versus vehicle ([3]; oral 0.3 mg/kg/day): did not show statistically significant differences
- EAE incidence ([3]; oral 1 mg/kg/day): 33%
- mean cumulative EAE score ([3]; oral 1 mg/kg/day): 3.9±1.8
- clinical EAE score in second phase (relapse) ([3]; oral 1 mg/kg/day): little evidence of disease activity
- mean maximal clinical (disability) score ([3]; oral 1 mg/kg/day): 0.9±0.3
- mean day of onset of EAE ([3]; oral 1 mg/kg/day): 14.7 days
- EAE incidence ([3]; oral 3 mg/kg/day): 40%
- mean cumulative EAE score ([3]; oral 3 mg/kg/day): 5.8±2.9
- clinical EAE score in second phase (relapse) ([3]; oral 3 mg/kg/day): little evidence of disease activity
- mean maximal clinical (disability) score ([3]; oral 3 mg/kg/day): 0.8±0.3
- mean day of onset of EAE ([3]; oral 3 mg/kg/day): 15.7 days
- side-effects (clinical symptoms other than EAE) ([3]; oral once daily 0.1-3 mg/kg, 42 days): did not induce any significant side-effects
- potency in uterine vasodilation relative to estriol and 17β-estradiol (nonpregnant ewes): 15 to 30 times less potent
- uterotrophic activity (immature rat uterus; Holinka et al. 1979): very weak uterotrophic activity
- uterotrophic activity (immature rat uterus; Holinka et al. 1980): very weak uterotrophic activity
- uterotrophic activity (uterus): very weak uterotrophic activity
- relative binding constant compared to 17β-estradiol (100%) ([4]; Tseng et al. 1976): 6.25%
- Relative binding to estrogen receptors, of 17β-estradiol ([4]; Tseng et al. 1978): 1.5%
